Reference: the NIST ThermoML archive (doi:10.1016/j.jct.2018.10.015)

What was measured:
[1] = 101.3 kPa, Liquid; for viscosity: Concentric cylinders viscometry; for mass density: Vibrating tube method
[2] = xn = mol fraction of the nth substance listed; settings: 101.3 kPa, Liquid, x2 = 0; for viscosity: Concentric cylinders viscometry; for mass density: Vibrating tube method

CCCCn1cc[n+](C)c1C.O=S(=O)([N-]S(=O)(=O)C(F)(F)F)C(F)(F)F
[1]
Settings	mass density [kg/m3]	viscosity [mPa·s]
293.15 K	1423.1	133.6
298.15 K	1418.5	101.82
303.15 K	1413.9	79.23
308.15 K	1409.3	62.74
313.15 K	1404.8	50.56
318.15 K	1400.2	41.38
323.15 K	1395.6	34.32
328.15 K	1391	28.91

CCn1cc[n+](C)c1C.O=S(=O)([N-]S(=O)(=O)C(F)(F)F)C(F)(F)F
[1]
Settings	mass density [kg/m3]	viscosity [mPa·s]
293.15 K	1495.8	89.88
298.15 K	1491	71.34
303.15 K	1486.3	57.64
308.15 K	1481.5	47.26
313.15 K	1476.7	39.24
318.15 K	1472	33
323.15 K	1467.2	28.05
328.15 K	1462.4	24.16

CCOC(=O)OCC [diethyl carbonate]
[1]
Settings	mass density [kg/m3]	viscosity [mPa·s]
293.15 K	974.9	0.805
298.15 K	969.3	0.751
303.15 K	963.7	0.702
308.15 K	958	0.659
313.15 K	952.4	0.62
318.15 K	946.7	0.584
323.15 K	940.9	0.552
328.15 K	935.2	0.523

CCOC(=O)OCC [diethyl carbonate] + CCCCn1cc[n+](C)c1C.O=S(=O)([N-]S(=O)(=O)C(F)(F)F)C(F)(F)F
[2]
Settings	mass density [kg/m3]	viscosity [mPa·s]
293.15 K	974.9	0.805
298.15 K	969.3	0.751
303.15 K	963.7	0.702
308.15 K	958	0.659
313.15 K	952.4	0.62
318.15 K	946.7	0.584
323.15 K	940.9	0.552
328.15 K	935.2	0.523

CCOC(=O)OCC [diethyl carbonate] + CCn1cc[n+](C)c1C.O=S(=O)([N-]S(=O)(=O)C(F)(F)F)C(F)(F)F
[2]
Settings	mass density [kg/m3]	viscosity [mPa·s]
293.15 K	974.9	0.805
298.15 K	969.3	0.751
303.15 K	963.7	0.702
308.15 K	958	0.659
313.15 K	952.4	0.62
318.15 K	946.7	0.584
323.15 K	940.9	0.552
328.15 K	935.2	0.523

COC(=O)OC [dimethyl carbonate]
[1]
Settings	mass density [kg/m3]	viscosity [mPa·s]
293.15 K	1069.7	0.629
298.15 K	1063.1	0.59
303.15 K	1056.4	0.555
308.15 K	1049.7	0.525
313.15 K	1043.1	0.495
318.15 K	1036.4	0.475
323.15 K	1029.6	0.446
328.15 K	1022.8	0.425

COC(=O)OC [dimethyl carbonate] + CCCCn1cc[n+](C)c1C.O=S(=O)([N-]S(=O)(=O)C(F)(F)F)C(F)(F)F
[2]
Settings	mass density [kg/m3]	viscosity [mPa·s]
293.15 K	1069.7	0.629
298.15 K	1063.1	0.59
303.15 K	1056.4	0.555
308.15 K	1049.7	0.525
313.15 K	1043.1	0.495
318.15 K	1036.4	0.475
323.15 K	1029.6	0.446
328.15 K	1022.8	0.425

COC(=O)OC [dimethyl carbonate] + CCn1cc[n+](C)c1C.O=S(=O)([N-]S(=O)(=O)C(F)(F)F)C(F)(F)F
[2]
Settings	mass density [kg/m3]	viscosity [mPa·s]
293.15 K	1069.7	0.629
298.15 K	1063.1	0.59
303.15 K	1056.4	0.555
308.15 K	1049.7	0.525
313.15 K	1043.1	0.495
318.15 K	1036.4	0.475
323.15 K	1029.6	0.446
328.15 K	1022.8	0.425
